{
  "source": "patent US20110092469A1",
  "about": "“Quinone derivative 2,3-dimethoxy-5-methyl-6-(10-hydroxydecyl)-1,4-benzoquinone for the treatment of respiratory illness in muscular dystrophy” (SANTHERA PHARMACEUTICALS (SCHWEIZ) AG, priority 2008, published 2011)",
  "tested_on": "Duchenne Muscular Dystrophy (DMD) patients",
  "experiment": "Double-blind, placebo-controlled, randomised clinical trial: pulmonary function testing in DMD patients",
  "type": "in vivo, human",
  "method": "Efficacy of idebenone on respiratory parameters in Duchenne Muscular Dystrophy (DMD) patients was assessed in a double-blind, placebo-controlled, randomised parallel group, clinical trial conducted in one singe clinical center. DMD patients at age 8 to 16 years were treated with idebenone or placebo over a period of 52 weeks. After written informed consent was obtained from the patient and the patient's parent/legal guardian, patients who met the protocol eligibility criteria were enrolled at the study centre and randomised to daily treatment of idebenone (150 mg, 3× daily; total daily dose of 450 mg) or placebo (3× daily). Efficacy was assessed at baseline and at weeks 26 and 52.\nA total of 21 patients were enrolled, 13 patients were randomised to treatment with idebenone and 8 randomised to treatment with placebo.\nIdebenone was formulated as a round biconvex shaped, film-coated orange tablet, with a 10 mm diameter, containing 150 mg of idebenone and Lactose Monohydrate, Microcrystalline Cellulose, Croscarmellose Sodium, Povidone (Plasdone® K25), Magnesium Stearate and Silicon Dioxide as excipients. The tablet is manufactured by a wet granulation process performed with a high-shear granulator, followed by compression on a rotary tabletting machine and film-coating of the cores in a perforated pan coater. The composition of the placebo is based on the composition of the 150 mg film-coated tablet. The drug substance and the excipients have been replaced by a mixture of lactose monohydrate and microcrystalline cellulose. The composition of the coating remained constant. Placebo tablets are manufactured by direct compression, followed by film-coating.\nBoth idebenone (150 mg) and matching placebo were administered as an oral tablet. Patients were to take 1 tablet, 3 times a day with meals, for 12 months (52 weeks).\nPulmonary function testing was performed by one clinical evaluator (physical therapist) with longstanding expertise in the assessment of children with neuromuscular diseases, using state of the art equipment and methods. Testing was done with the patient sitting, with a standardized order of testing. Lung volumes (FVC, FEV1) were measured using a handheld Koko spirometer (PDS Instrumentation, Louisville, USA).\nMaximum inspiratory (MIP) and expiratory (MEP) pressures were measured using a Magnehelic® manometer (Dwyer Instrument, Michigan City Ind., USA) connected to a mouthpiece. Peak expiratory flow (PEF) measurements were performed using a portable peak flow meter (Mini-Wright peak flow meter, Clement Clarke International). For all parameters the highest values from three consecutive recordings were used in compliance with criteria published by the American Thoracic Society (ATS) (American Thoracic Society. Am J Respir Crit Care Med 1994; 152:1107-1136).\nPulmonary function testing included the following parameters: • Forced vital capacity (FVC) [L] • Forced vital capacity % predicted • Forced expiratory volume in 1 second (FEV1) [L] • FEV1 (% predicted) • Peak expiratory flow (PEF) [L/min] • Peak expiratory flow (% predicted) • Maximal Inspiratory Pressure (MIP) [cmH2O] • Maximal Inspiratory Pressure (% predicted)\nFor peak expiratory flow conversion from measured values (in Liter) to ‘% predicted’ was performed by the following equation: […]\n“peak expiratory flow−422.8+5.288×height”[height in cm]\nFor maximal inspiratory pressure (MIP) conversion from measured values (in cm H2O) to ‘% predicted’ was performed by the following equation: […]\n“MIP−27.020−(4.132×age)−(0.003×height×weight)”[age: years; height: cm body height; weight: kg]\nEfficacy of idebenone was determined for the parameters listed above as changes between baseline and end of treatment (at week 52) and comparisons were made between idebenone treated and placebo treated subjects.",
  "key": {"[1]": {"settings": "DMD patients, idebenone 450 mg/day oral, N = 13, week 52, mean ± SD"}},
  "data": [
    {"smiles": "COC1=C(OC)C(=O)C(CCCCCCCCCCO)=C(C)C1=O", "note": "[Idebenone, 2,3-dimethoxy-5-methyl-6-(10-hydroxydecyl)-1,4-benzoquinone]", "values": [
      {"measurement": "FVC (forced vital capacity), Week 52", "setting": "DMD patients 8-16 years, idebenone 150 mg 3x daily oral, N = 13, week 52 (end of treatment), mean ± SD", "value": "2.33 ± 0.67", "unit": "L"},
      {"measurement": "MIP expressed as percent of the predicted value, increase over 52 weeks", "setting": "DMD patients on idebenone, 52 week treatment period", "value": "4.8±13.0", "unit": "%"},
      {"measurement": "Peak expiratory flow at week 52 compared to baseline (in words)", "setting": "DMD patients on idebenone, difference in change vs placebo statistically significant", "value": "higher at week 52 compared to baseline"},
      {"measurement": "Maximum inspiratory pressure (MIP) over the 52 week treatment period (in words)", "setting": "DMD patients on idebenone, expressed as more negative number, change clearly different from placebo", "value": "increased"},
      {"measurement": "MIP, Change Week 52-BL", "setting": "DMD patients, idebenone 450 mg/day oral, N = 13, change baseline to week 52, mean ± SD, more negative = larger inspiratory force, p 0.173 vs placebo (one-sided)", "value": "−7.33 ± 13.0", "unit": "cmH2O"},
      {"measurement": "Peak expiratory flow, Change Week 52-BL", "setting": "DMD patients, idebenone 450 mg/day oral, N = 13, change baseline to week 52, mean ± SD, p 0.039 vs placebo (one-sided)", "value": "30.8 ± 54.4", "unit": "L/min"},
      {"measurement": "Peak expiratory flow % predicted, Change Week 52-BL", "setting": "DMD patients, idebenone 450 mg/day oral, N = 13, change baseline to week 52, mean ± SD, p 0.042 vs placebo (one-sided)", "value": "2.8 ± 13.8", "unit": "% predicted"},
      {"measurement": "MIP % predicted, Change Week 52-BL", "setting": "DMD patients, idebenone 450 mg/day oral, N = 13, change baseline to week 52, mean ± SD, p 0.142 vs placebo (one-sided)", "value": "4.8 ± 13.0", "unit": "% predicted"},
      {"measurement": "FVC, Change Week 52-BL", "setting": "DMD patients, idebenone 450 mg/day oral, N = 13, change baseline to week 52, mean ± SD, p 0.471 vs placebo (one-sided)", "value": "0.14 ± 0.31", "unit": "L"},
      {"measurement": "FEV1, Change Week 52-BL", "setting": "DMD patients, idebenone 450 mg/day oral, N = 13, change baseline to week 52, mean ± SD, p 0.484 vs placebo (one-sided)", "value": "0.11 ± 0.37", "unit": "L"},
      {"measurement": "FEV1 % predicted, Change Week 52-BL", "setting": "DMD patients, idebenone 450 mg/day oral, N = 13, change baseline to week 52, mean ± SD, p 0.651 vs placebo (one-sided)", "value": "−2.0 ± 9.2", "unit": "% predicted"},
      {"measurement": "FVC % predicted, Change Week 52-BL", "setting": "DMD patients, idebenone 450 mg/day oral, N = 13, change baseline to week 52, mean ± SD, p 0.793 vs placebo (one-sided)", "value": "−1.2 ± 6.4", "unit": "% predicted"},
      {"measurement": "FEV1 % predicted, Week 52", "setting": "[1]", "value": "74.5 ± 23.88", "unit": "% predicted"},
      {"measurement": "FEV1 (forced expiratory volume 1 second), Week 52", "setting": "[1]", "value": "2.08 ± 0.71", "unit": "L"},
      {"measurement": "FVC % predicted, Week 52", "setting": "[1]", "value": "75.3 ± 24.79", "unit": "% predicted"},
      {"measurement": "MIP % predicted, Week 52", "setting": "[1]", "value": "44.1 ± 13.38", "unit": "% predicted"},
      {"measurement": "MIP (maximal inspiratory pressure), Week 52", "setting": "[1]", "value": "−47.3 ± 14.09", "unit": "cmH2O"},
      {"measurement": "Peak expiratory flow % predicted, Week 52", "setting": "[1]", "value": "76.9 ± 20.13", "unit": "% predicted"},
      {"measurement": "Peak expiratory flow, Week 52", "setting": "[1]", "value": "292.3 ± 90.6", "unit": "L/min"},
      {"measurement": "Changes in FVC, FVC % predicted, FEV1 and FEV1 % predicted versus placebo (in words)", "setting": "DMD patients, idebenone treatment 52 weeks", "value": "not different from placebo treatment"}
    ]}
  ]
}
